Measurements taken from US5118665A, “Anti-oxidative and anti-inflammatory metal:peptide complexes and uses thereof” (ProCyte Corporation, priority 1990, dated 1992).
Read-outs that look alike come from different tables or passages of the source.

Legend:
Type in all cases: biochemical
superoxide anion = assay: Superoxide dismutase mimetic activity, xanthine oxidase/NBT method; conditions: for IC50: read-out: CONC. FOR 50% INHIB.; for CONC. FOR 50% INHIB.: Table 4, ratio 2:1 (binary) or 1:1:1 (ternary with chelating agent), ug copper(II) added per reaction
Method: The reactions contained the following: 100 uM xanthine, 56 uM NBT (nitro blue tetrazolium) 1 unit of catalase, and 50 mM potassium phosphate buffer, pH 7.8. The reaction was initiated by the addition of xanthine oxidase in sufficient quantity to obtain an increase in absorbance at 560 nm of approximately 0.025/min. in a total sample volume of 1.7 ml. The xanthine oxidase was prepared fresh daily and stored on ice until used. All the components of the reaction are added except the xanthine oxidase and the spectrophotometer was adjusted to zero at 560 nm. The reaction was initiated by the addition of the xanthine oxidase. All reagents were obtained from Sigma Chemical Co.
Measurements of the absorbance at 560 nm were taken at 1-2 minute intervals for at least 16 minutes following addition of xanthine oxidase. A control consisted of reactions containing no metal:peptide complex.
All complexes were tested at a 2:1 molar ratio of peptide to metal. It should be noted that the absolute value found in enzymatic assays for SOD mimetic activity varries depending upon the enzyme lot used in the evaluation. Thus, the inclusion of GHL-Cu permits comparisons from experiment to experiment based on a normalized activity relative to GHL-Cu.
In this example, superoxide dismutase was measured by the xanthine oxidase/NBT method as described in Example 13. Each complex was tested relative to GHL-Cu assayed at the same time. All complexes were tested at a 2:1 molar ratio of peptide to metal.
In this example, superoxide dismutase was measured by the xanthine oxidase/NBT method as described in Example 13. Each compound was tested relative to GHL-Cu assayed at the same time. All complexes were tested at a 2:1 molar ratio of peptide to metal.
In this example, superoxide dismutase was measured by the xanthine oxidase/NBT method as described in Example 13. Each compound was tested relative to GHL-Cu or glycyl-L-histidyl-L-lysyl-L-valyl-L-phenylalanyl-valine:copper(II) ("GHLVFV-Cu") assayed at the same time. In this example, the amount of complex for 50% inhibition is expressed as ug copper(II) added per reaction necessary to achieve 50% inhibition of the control reaction.
In this example, superoxide dismutase was measured by the xanthine oxidase/NBT method as described in Example 13. Each compound was tested relative to GHL-Cu assayed at the same time.

ferritin = assay: Inhibition of ferritin iron release (bathophenanthroline disulfonate, A535); conditions: 10 um complex, peptide:metal 1:1; for RATE INC. A535 nm min: 200 uM ferritin, no addition = 0.0060; for PERCENT INHIBITION: versus reaction with no additions
Method: (§1) Iron release from ferritin was measured by incubating ferritin with 10 um of a metal:peptide complexes of the present invention and determining the amount of iron released. Reaction mixtures contained 0.33 mM xanthine, 25 mU/ml xanthine oxidase, and 90 U/ml catalase as described in Example 13. In addition, 200 uM ferritin was added as a source of iron and 150 uM bathophenanthroline disulfonate to chelate and released iron. The release of iron was measured as an increase in the absorption of 535 nm due to the ironbathophenanthroline complex. The data is presented in Table 6 as this absorption rate and as a percent inhibition of a reaction with no additions. All the metal:peptide complexes are at a molar ratio of peptide to metal of 1:1.

[1] = test system: liposomes prepared from rat liver lipids; assay: Inhibition of ferritin and superoxide anion dependent lipid peroxidation (MDA formation); conditions: peptide:metal 1:1; for RATE nmole MDA/min/ml: incubations as Example 18, no addition = 0.220 (A), 0.150 (B); for PERCENT INHIBITION: versus reaction with no additions
Method: as §1
Lipid peroxidation was measured by determining the oxidation of lipids in liposomes prepared from rat liver lipids. Incubations were as described in Example 18 except that rat liver lipid […] were included. The oxidation was followed by determining the amount of malondialdehyde ("MDA") formed during the reaction. The data is presented in Table 7 as this absorption rate and as a percent inhibition of a reaction with no additions. All the metal:peptide complexes are at a molar ratio of peptide to metal of 1:1.

[2] = Table 2, GHL:Cu of the same experiment = 100, peptide:metal 2:1
[3] = Table 2, peptide:metal 2:1, experiments A-G, each with its own GHL:Cu control
[4] = Table 3, ratio 2:1, copper(II) versus manganese(II), experiments A, B
[5] = Table 3, ratio 2:1, reference of the same experiment = 100
[6] = Table 1, GHL:Cu of the same experiment = 100, peptide:metal 2:1
[7] = Table 1, peptide:metal 2:1, pH 7.8, experiments A-E, each with its own GHL:Cu control
[8] = Table 4 experiment A, GHL:Cu 2:1 = 100
[9] = Table 5, GHL:Cu of the same experiment = 100, ratio 2:1
[10] = Table 5, ratio 2:1, albumin binding moieties, experiments A, B
[11] = Table 4 experiment B, GHLVFV:Cu 2:1 = 100

“Lhistidyl-glycyl-L-lysine:copper(II) [HGL:Cu]” was tested, and the “RELATIVE to GHL-Cu” value (superoxide anion; [2]) was 22300, the IC50 (superoxide anion; [3]) was 0.3 µM and the “RATE INC. A535 nm min” value (ferritin) was 0.0008 A535 nm min. The “PERCENT INHIBITION” value (ferritin) was 87%, the “RATE nmole MDA/min/ml” value [1] was 0.020 nmole MDA/min/ml and the “PERCENT INHIBITION” value [1] was 87%.

With “Lhistidyl-glycyl-L-lysine:manganese(II) [HGL:Mn]” the IC50 (superoxide anion; [4]) was 2 µM and the “RELATIVE to GHL-Cu” value (superoxide anion; [5]) was 2000.

With “alanylL-histidyl-L-lysine:copper(II) [AHL:Cu]” the “RELATIVE to GHL-Cu” value (superoxide anion; [2]) was 563 and the IC50 (superoxide anion; [3]) was 6 µM.

For “alanylL-histidyl-L-lysine:manganese(II) [AHL:Mn]”, the IC50 (superoxide anion; [4]) was 6 µM and the “RELATIVE to GHL-Cu” value (superoxide anion; [5]) was 667.

“glycyl-L-histidyl-L-lysine n-octyl ester:copper(II) [GHL-Octyl Ester:Cu]” was tested, and the “RELATIVE to GHL-Cu” value (superoxide anion; [6]) was 810, the IC50 (superoxide anion; [7]) was 7 µM and the IC50 (superoxide anion; [4]) was 11 µM. The “RELATIVE to GHL-Cu” value (superoxide anion; [5]) was 100, the “RATE INC. A535 nm min” value (ferritin) was 0.0012 A535 nm min and the “PERCENT INHIBITION” value (ferritin) was 80%. The “RATE nmole MDA/min/ml” value [1] was 0.060 nmole MDA/min/ml and the “PERCENT INHIBITION” value [1] was 73%.

For “glycyl-L-histidyl-L-lysine:copper(II) [GHL:Cu, reference compound]”, the “RELATIVE to GHL-Cu” value (superoxide anion; [6]) was 100, the “RELATIVE to GHL-Cu” value (superoxide anion; [2]) was 100 and the “RELATIVE to GHL-Cu” value (superoxide anion; [5]) was 100. The “CONC. FOR 50% INHIB.” value (superoxide anion) was 3.2 ug copper(II) per reaction, the “RELATIVE to GHL-Cu” value (superoxide anion; [8]) was 100 and the “RELATIVE to GHL-Cu” value (superoxide anion; [9]) was 100. For the same substance, the “RATE INC. A535 nm min” value (ferritin) was 0.0016 A535 nm min, the “PERCENT INHIBITION” value (ferritin) was 73% and the “RATE nmole MDA/min/ml” value [1] was 0.084 nmole MDA/min/ml. For the same substance, the “PERCENT INHIBITION” value [1] was 62%.

With “glycylL-(3-benzyl)-histidyl-L-lysine:copper(II) [G(3-Benzyl)HL:Cu]” the “RELATIVE to GHL-Cu” value (superoxide anion; [2]) was 145 and the IC50 (superoxide anion; [3]) was 33 µM.

For “glycylL-(3-methyl)-histidyl-L-lysine:copper(II) [G(3-Methyl)HL:Cu]”, the “RELATIVE to GHL-Cu” value (superoxide anion; [2]) was 616, the IC50 (superoxide anion; [3]) was 8 µM and the “RATE INC. A535 nm min” value (ferritin) was 0.0010 A535 nm min. For the same substance, the “PERCENT INHIBITION” value (ferritin) was 83%, the “RATE nmole MDA/min/ml” value [1] was 0.104 nmole MDA/min/ml and the “PERCENT INHIBITION” value [1] was 31%.

For “glycylL-(3-methyl)-histidyl-L-lysyl-glycyl-L-tryptophan:copper(II) [G(3-Methyl)HLGW:Cu]”, the “RELATIVE to GHL-Cu” value (superoxide anion; [9]) was 521 and the IC50 (superoxide anion; [10]) was 11 µM.

For “glycylL-histidyl-L-lysine noctyl amide:copper(II) [GHL-Octyl Amide:Cu]”, the “RELATIVE to GHL-Cu” value (superoxide anion; [6]) was 182 and the IC50 (superoxide anion; [7]) was 17 µM.

With “glycylL-histidyl-L-lysine noctyl ester:manganese(II) [GHL-Octyl:Mn]” the IC50 (superoxide anion; [4]) was 2 µM and the “RELATIVE to GHL-Cu” value (superoxide anion; [5]) was 611.

With “glycylL-histidyl-L-lysine npalmityl ester:copper(II) [GHL-Palmityl Ester:Cu]” the “RELATIVE to GHL-Cu” value (superoxide anion; [6]) was 231 and the IC50 (superoxide anion; [7]) was 24 µM.

For “glycylL-histidyl-L-lysine:copper(II):histidine [GHL:Cu:H]”, the “CONC. FOR 50% INHIB.” value (superoxide anion) was 0.2 ug copper(II) per reaction and the “RELATIVE to GHL-Cu” value (superoxide anion; [8]) was 1600.

“glycylL-histidyl-L-lysine:copper(II):imidazole [GHL:Cu:Im]” was tested, and the “CONC. FOR 50% INHIB.” value (superoxide anion) was 1.3 ug copper(II) per reaction and the “RELATIVE to GHL-Cu” value (superoxide anion; [8]) was 246.

“glycylL-histidyl-L-lysyl-L-alanyl-L-phenylalanyl-L-alanine:copper(II) [GHLAFA:Cu]” was tested, and the “RELATIVE to GHL-Cu” value (superoxide anion; [6]) was 561 and the IC50 (superoxide anion; [7]) was 10 µM.

“glycylL-histidyl-L-lysyl-L-tryptophan:copper(II) [GHLW:Cu]” was tested, and the “RELATIVE to GHL-Cu” value (superoxide anion; [9]) was 4700 and the IC50 (superoxide anion; [10]) was 1 µM.

“glycylL-histidyl-L-lysyl-L-valyl-L-phenylalanyl-L-valine:copper(II) [GHLVFV:Cu]” was tested, and the “RELATIVE to GHL-Cu” value (superoxide anion; [6]) was 229, the IC50 (superoxide anion; [7]) was 23 µM and the “CONC. FOR 50% INHIB.” value (superoxide anion) was 2.8 ug copper(II) per reaction. For the same substance, the “RELATIVE to GHL-Cu” value (superoxide anion; [11]) was 100, the “RATE INC. A535 nm min” value (ferritin) was 0.0011 A535 nm min and the “PERCENT INHIBITION” value (ferritin) was 82%. The “RATE nmole MDA/min/ml” value [1] was 0.140 nmole MDA/min/ml and the “PERCENT INHIBITION” value [1] was 36%.

With “glycylL-histidyl-L-lysyl-L-valyl-L-phenylalanyl-L-valine:copper(II):histiine [GHLVFV:Cu:H]” the “CONC. FOR 50% INHIB.” value (superoxide anion) was 0.2 ug copper(II) per reaction and the “RELATIVE to GHL-Cu” value (superoxide anion; [11]) was 1400.

For “glycylL-histidyl-L-lysyl-L-valyl-L-phenylalanyl-L-valine:copper(II):imidaole [GHLVFV:Cu:Im]”, the “CONC. FOR 50% INHIB.” value (superoxide anion) was 0.3 ug copper(II) per reaction and the “RELATIVE to GHL-Cu” value (superoxide anion; [11]) was 930.

In the case of “glycylL-histidyl-cadaverine:copper(II) [GHCadaverine:Cu]”, the “RELATIVE to GHL-Cu” value (superoxide anion; [2]) is reported as 118 and the IC50 (superoxide anion; [3]) is reported as 17 µM.

“glycylL-lysyl-L-histidine:copper(II) [GLH:Cu]” was tested, and the “RELATIVE to GHL-Cu” value (superoxide anion; [2]) was 75 and the IC50 (superoxide anion; [3]) was 20 µM.

“glycylL-lysyl-L-histidine:manganese(II) [GLH:Mn]” was tested, and the IC50 (superoxide anion; [4]) was 6 µM and the “RELATIVE to GHL-Cu” value (superoxide anion; [5]) was 2000.

For “lysylL-histidyl-L-glycine amide:copper(II) [LHG-Amide:Cu]”, the “RELATIVE to GHL-Cu” value (superoxide anion; [2]) was 21 and the IC50 (superoxide anion; [3]) was 70 µM.

“lysylL-histidyl-L-glycine noctyl ester:copper(II) [LHG-Octyl Ester:Cu]” was tested, and the “RELATIVE to GHL-Cu” value (superoxide anion; [6]) was 60 and the IC50 (superoxide anion; [7]) was 10 µM.

“lysylL-histidyl-caprolactam:copper(II) [GHCaprolactam:Cu]” was tested, and the “RELATIVE to GHL-Cu” value (superoxide anion; [2]) was 4500 and the IC50 (superoxide anion; [3]) was 0.8 µM.

With “lysylL-histidyl-glycyl-L-valyl-L-phenylalanyl-L-valine:copper(II) [LHGVFV:Cu]” the “RELATIVE to GHL-Cu” value (superoxide anion; [6]) was 46 and the IC50 (superoxide anion; [7]) was 13 µM.
